Reference: patent publication US20100196194A1, “METHOD FOR S[…] WITH OZONE” (BRADFORD I[…], priority 2006, published 2010)

Legend:
bacterial spores = test: relation between ozone concentration and time needed for sterilization of bacterial spore samples; format: cell-based; conditions: ozone concentration 2-3 mgr/l (based on 1 atm), moisture content 60-80%
Method: Experimentally, the relation has been investigated between ozone concentration and the time needed for sterilization. A typical measurement procedure is as follows. A sample with bacterial spores is prepared, and exposed in the chamber 10 to an ozone-containing atmosphere with a specific temperature and air humidity, during a specific treatment time, after which the sample is removed from the chamber 10. […] Thus, a series of samples is treated, each time with different treatment times. To obtain a greater certainty, the measurements are repeated, which means that at a certain treatment time always multiple measurements are done with different samples.
The treated samples are subsequently placed in a conditioned breeding chamber, and it is monitored at which samples bacterial growth is and at which samples bacterial is not taking place. […]
The results obtained from the culture were correlated to the treatment times. For each value of the ozone concentration, it was assessed what the LONGEST treatment time was where bacterial growth was still observed: this treatment time was apparently insufficient to guarantee 100% elimination of the spores; this measurement point and all measurement points with shorter treatment times, in FIG. 2, are indicated with open circles. […]

[1] = system: spores of the bacterium Bacillus Atrophaeus; test: sterilization of standard spore strips (10E6), growth check after 48 hours at 37° C. in tryptone soya broth; format: cell-based
Description: The FIGS. 3A-3B illustrate another experiment, executed on spores of the bacterium Bacillus Atrophaeus (previously known as Bacillus subtilis var. niger); from all bacterial spores, the spores of this bacterium Bacillus Astrophaeus are the most resistant to ozone. Use was made of standard spore strips with the qualification 10E6; these are strips on which in the order of 10^6 bacterial spores have been deposited. The used strips were obtained from the company Etigam BV in Apeldoorn, Netherlands. According to statement of the supplier, these spores were obtained from the American Type Culture Collection (ATCC) 9372.
In this experiment, the spore strips were submitted to a sterilization process, wherein the ozone concentration, the degree of humidity and the treatment time were measured. The spore strips were removed from the sterilization chamber, and than were stored for 48 hours at a temperature of 37° C. in a test tube filled with tryptone soya broth (“tryptone Soya Broth”, TSB). TSB is a standard nutrition medium, obtainable at Tritium-Microbiologie BV in Veldhoven, Netherlands, type indication T406.24.0005.
Each time, four spore strips were treated simultaneously. After the storage time of 48 hours, for each spore strip it was investigated whether bacterial spores had grown. If visually no bacterial growth could be detected, it was assumed that all spores of the relevant spore strip had been killed. If visually bacterial growth could be detected, the relevant spore strip was qualified as “insufficiently sterilized”. The results are presented in the FIGS. 3A and 3B, wherein FIG. 3A relates to measurements at an ambient temperature of 20° C. during the sterilization process and FIG. 3B relates to measurements at an ambient temperature of 30° C. during the sterilization process. The horizontal axis in the figures represents the measured degree of humidity in percentages, the vertical axis represents the time integral of the ozone concentration, indicated as ∫[O3], in units of gr·s/l. In the area 131, 100% of the bacterial spores of all four the test strips were always killed. In the area 132, each time one spore strip was insufficiently sterilized. In the area 133, each time two spore strips were insufficiently sterilized. In the area 134, each time three or four spore strips were insufficiently sterilized. The rectangular areas that are cut away from the top left of the graphs are areas belonging to test strips that were not analyzed.

O=[O+][O-] [ozone]
sterilization result in experimental set-up (bacterial spores): good results | degree of humidity giving optimal sterilization result ([1]; FIG. 3A, ambient temperature 20° C.): approximately 80 % RH | effect of increasing the ambient temperature on sterilization ([1]; ambient temperature increased to 30° C. (versus 20° C.)): favourable effect | effect of increasing the degree of humidity on sterilization ([1]; degree of humidity increased to 95%): did not give clear improvement | sterilization at low degree of humidity ([1]; less than 50% RH): no good sterilization proved to be possible | ozone performance equivalent OPEQ (minimum time integral of ozone concentration leading to 100% sterilization) ([1]; worst case 60% RH and 20° C., valid at all humidity above 60% RH, at 20° C. and 30° C.): 15 gr·s/l
